{"source": "paper PMC11150392", "about": "“Structure and mechanism of the K^+/H^+ exchanger KefC” (Nature Communications, 2024)", "target": "T1, KefC WT* (Escherichia coli, UniProt P03819)", "T1 construct": "lacks final 60 C-terminal residues (WT*); C-terminal TEV-GFP-His8, cleaved for cryo-EM, kept in FSEC stability assays; expressed in E. coli Lemo21(DE3)-type host; homodimer in DDM/GDN", "T1 sequence (P03819 1-560)": "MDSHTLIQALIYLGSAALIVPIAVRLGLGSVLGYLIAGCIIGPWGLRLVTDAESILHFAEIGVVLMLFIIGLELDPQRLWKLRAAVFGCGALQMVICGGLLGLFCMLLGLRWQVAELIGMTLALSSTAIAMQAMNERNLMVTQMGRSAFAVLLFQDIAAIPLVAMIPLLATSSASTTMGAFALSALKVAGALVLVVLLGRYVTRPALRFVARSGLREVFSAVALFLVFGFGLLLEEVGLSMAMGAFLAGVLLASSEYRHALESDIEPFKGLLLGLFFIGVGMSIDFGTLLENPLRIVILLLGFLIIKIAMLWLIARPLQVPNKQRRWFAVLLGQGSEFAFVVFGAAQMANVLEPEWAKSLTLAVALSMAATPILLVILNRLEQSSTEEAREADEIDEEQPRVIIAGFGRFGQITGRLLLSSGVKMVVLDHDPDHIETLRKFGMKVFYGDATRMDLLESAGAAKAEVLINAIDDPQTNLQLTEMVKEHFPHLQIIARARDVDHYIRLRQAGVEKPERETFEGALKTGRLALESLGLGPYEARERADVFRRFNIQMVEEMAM", "test": "FSEC thermostabilization of purified GFP fusion", "type": "binding", "conditions": "40 °C 10 min, 1% beta-OG, DDM, 1 mM AMP, pH 7.5; dimer interface; Supplementary Fig. 5b; PG modelled (PGW), map density not unambiguous", "data": [{"smiles": "CCCCCCCC/C=C\\CCCCCCCC(=O)OC[C@H](COP(=O)(O)OCC(O)CO)OC(=O)CCCCCCC/C=C\\CCCCCCCC", "note": "(stereo partly shown) [DOPG]", "values": [{"measurement": "FSEC thermostabilization of purified GFP fusion", "value": "The clearest thermostabilization of the KefC homodimer was observed upon addition of PG lipids"}]}]}
